Results on three molecules are retold here after ChEMBL document CHEMBL3286390, “Lead optimization of 1,4-azaindoles as antimycobacterial agents” (J Med Chem, 2014).

The half-life is how long it takes for the measured level to halve. As a reminder, the IC50 is the midpoint of a concentration-inhibition curve. High values mean weaker potency in that assay, low ones greater potency in that assay. What is called solubility is the concentration that dissolves in the medium under given conditions. Read a low solubility as a poorly soluble substance. The AUC(0-inf) is the area under the concentration-time curve extrapolated to infinity. One may read the AUC as the area under the concentration-time curve, a measure of exposure. Broadly, the Tmax is the time at which the peak concentration occurs. The term bioavailability denotes dose-corrected exposure relative to a reference, in per cent. High values mean good availability, low ones poor availability. A word on the fraction unbound: it is free concentration divided by total concentration. Low values mean extensive binding, high ones weak binding. What is called Cmax is the peak of the concentration-time curve. Broadly, the logD is lipophilicity at a set pH, counting ionised and neutral species. A high value points to a more lipophilic compound. One may read the CL/F as the apparent clearance, not corrected for the fraction that reaches the circulation.

Values after ≈ are worked out from the molar mass of the structure shown. Active and inactive are the calls of the source. The rule behind the calls is not given here. A value given as a limit tells only on which side of the number the result lay.

The nature of series [1]: Half life in BALB/c mouse at 30 mg/kg, po administered as single dose. Type of series: ADME, organism-based. Also noted: dose 30 mg/kg, route oral. The following applies: in vivo.
In a further series the target is Cytochrome P450 3A4 (Homo sapiens, UniProt P08684). The series can be described thus: Inhibition of human CYP3A4. In kind it is ADME.
Sequence of Cytochrome P450 3A4 (P08684 whole entry): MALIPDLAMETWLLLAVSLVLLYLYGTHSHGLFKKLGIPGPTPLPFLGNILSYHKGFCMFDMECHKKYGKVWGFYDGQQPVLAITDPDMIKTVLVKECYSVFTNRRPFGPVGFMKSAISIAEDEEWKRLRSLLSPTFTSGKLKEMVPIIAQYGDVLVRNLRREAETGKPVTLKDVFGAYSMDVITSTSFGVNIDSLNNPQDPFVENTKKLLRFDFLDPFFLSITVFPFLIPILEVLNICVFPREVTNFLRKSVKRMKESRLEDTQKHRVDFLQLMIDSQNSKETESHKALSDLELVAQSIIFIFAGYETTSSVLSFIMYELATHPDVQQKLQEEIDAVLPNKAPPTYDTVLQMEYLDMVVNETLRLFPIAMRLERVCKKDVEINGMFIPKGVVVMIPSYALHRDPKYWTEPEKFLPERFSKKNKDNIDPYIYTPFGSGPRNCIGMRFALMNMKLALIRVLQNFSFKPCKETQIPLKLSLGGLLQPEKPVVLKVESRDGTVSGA
The test system of series [2] is Rattus norvegicus. The series is described as follows: T>MIC in Wistar rat chronically infected with Mycobacterium tuberculosis H37Rv ATCC 27294 at 100 mg/kg, po.
Series [3] has as its target Voltage-gated inwardly rectifying potassium channel KCNH2 (Homo sapiens, UniProt Q12809).
The next series deals with T1, Cytochrome P450 1A2 (Homo sapiens, UniProt P05177).
T1 sequence (P05177 whole entry): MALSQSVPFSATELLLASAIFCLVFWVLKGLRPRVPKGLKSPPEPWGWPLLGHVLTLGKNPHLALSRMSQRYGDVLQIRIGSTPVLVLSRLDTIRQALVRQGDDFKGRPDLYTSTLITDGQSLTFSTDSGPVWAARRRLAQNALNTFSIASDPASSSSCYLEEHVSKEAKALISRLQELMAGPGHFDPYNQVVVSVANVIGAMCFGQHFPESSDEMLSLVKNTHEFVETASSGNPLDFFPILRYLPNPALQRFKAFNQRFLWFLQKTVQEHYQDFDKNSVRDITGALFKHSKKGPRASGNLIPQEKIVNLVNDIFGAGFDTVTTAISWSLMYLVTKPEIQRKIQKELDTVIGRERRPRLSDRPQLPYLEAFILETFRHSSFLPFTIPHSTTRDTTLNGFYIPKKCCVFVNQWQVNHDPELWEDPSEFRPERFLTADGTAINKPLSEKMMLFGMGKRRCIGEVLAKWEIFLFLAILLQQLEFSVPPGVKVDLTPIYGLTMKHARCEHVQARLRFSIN
The series can be described thus: Inhibition of human CYP1A2. Type of series: ADME.

The nature of series [4]: Aqueous solubility of the compound in phosphate buffer at pH 7.4 after 24 hrs by UV-MS analysis. In kind it is physicochemical.
In another series the target is Phosphodiesterase 6. The series is described as follows: Inhibition of PDE6 (unknown origin). Type of series: protein assay, Homo sapiens.
The nature of series [5]: AUC (infinity) in BALB/c mouse at 30 mg/kg, po administered as single dose. Type of series: ADME, organism-based. The following applies: plasma. Also noted: time infinity, dose 30 mg/kg, route oral.
Series [6] has as its system Mycobacterium tuberculosis. In kind it is functional, organism-based. Details: dose 100 mg/kg. The following applies: H37Rv ATCC 27294, Lung, 100 mg/kg.
The test system of series [7] is Mycobacterium tuberculosis. Type of series: functional, H37Rv ATCC 27294, THP-1. The following applies: Mycobacterium tuberculosis, H37Rv ATCC 27294; read-out: MIC.
The test system of series [8] is Rattus norvegicus. The series is described as follows: (§1) AUC in Mycobacterium tuberculosis H37Rv ATCC 27294 infected Wistar rat infection model at 100 mg/kg, po. In kind it is ADME, organism-based. Also noted: dose 100 mg/kg, route oral. The following applies: in vivo.
The nature of series [9]: Tmax in BALB/c mouse at 30 mg/kg, po administered as single dose. Type of series: ADME, organism-based. Details: dose 30 mg/kg, route oral. The following applies: in vivo.
The nature of series [10]: Permeability across basolateral to apical side in human Caco2 cells. In kind it is ADME, cell-based. The following applies: Caco-2, read-out: permeability. For orientation: Passage across Caco-2 layers is used to estimate intestinal permeability.
The nature of series [11]: Inhibition of Mycobacterium smegmatis thioredoxin 6xHis-tagged decaprenylphosphoryl-beta-D-ribose2'-epimerase 1 overexpressed in Escherichia coli rosetta cells using farnesyl-phosphoryl-beta-D-ribofuranose as substrate. Details: species or system Mycolicibacterium smegmatis.
Another series has as its target Cytochrome P450 2C9 (Homo sapiens, UniProt P11712). The series is described as follows: Inhibition of human CYP2C9. In kind it is ADME.
The next series concerns the target Cytochrome P450 2C19 (Homo sapiens, UniProt P33261). The series is described as follows: Inhibition of human CYP2C19. Type of series: ADME.
The nature of series [12]: Oral bioavailability in rat. Type of series: ADME, organism-based. The following applies: in vivo.
The target of the next series is Cytochrome P450 2D6 (Homo sapiens, UniProt P10635). The series is described as follows: Inhibition of human CYP2D6. In kind it is ADME.
Sequence of Cytochrome P450 2D6 (P10635 whole entry): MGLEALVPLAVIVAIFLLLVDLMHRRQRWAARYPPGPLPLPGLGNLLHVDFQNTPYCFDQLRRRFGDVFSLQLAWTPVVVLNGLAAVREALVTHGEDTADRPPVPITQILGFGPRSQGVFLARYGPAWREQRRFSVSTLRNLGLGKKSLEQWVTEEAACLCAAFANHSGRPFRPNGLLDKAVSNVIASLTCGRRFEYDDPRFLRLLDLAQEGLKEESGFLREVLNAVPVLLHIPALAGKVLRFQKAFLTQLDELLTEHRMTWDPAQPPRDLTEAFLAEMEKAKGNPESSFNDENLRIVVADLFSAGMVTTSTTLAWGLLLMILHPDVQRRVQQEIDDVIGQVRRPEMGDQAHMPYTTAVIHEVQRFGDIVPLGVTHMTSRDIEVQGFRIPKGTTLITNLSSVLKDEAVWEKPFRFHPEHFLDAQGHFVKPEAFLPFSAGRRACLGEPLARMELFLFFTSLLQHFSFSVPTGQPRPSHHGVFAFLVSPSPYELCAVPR
Series [13] is described as follows: Unbound fraction in human plasma. Type of series: ADME, cell-free.
The nature of series [14]: Intrinsic clearance in mouse liver microsomes. The following applies: read-out: CLH. Type of series: ADME. In general terms: Microsomes from liver hold many membrane-bound enzymes, among them those of drug oxidation.
Series [15] can be described thus: Cmax in BALB/c mouse at 30 mg/kg, po administered as single dose. The following applies: in vivo. Also noted: dose 30 mg/kg, route oral. In kind it is ADME, organism-based.
For series [16], the system named is Mycobacterium tuberculosis. The series is described as follows: microbe, parasite or virus in culture. The following applies: H37Rv ATCC 27294, 120 h.
Description: Antimicrobial activity against Mycobacterium tuberculosis H37Rv ATCC 27294 assessed as growth inhibition after 5 days by microdilution method
Series [17] is described as follows: as §1. Type of series: ADME, organism-based. Details: dose 100 mg/kg, route oral. The following applies: Wistar, in vivo.
Series [18] in a line: Octanol-water partition coefficient, log D of the compound at pH 7.4 by shake flask method. In kind it is physicochemical.
A short description of series [19]: Permeability across apical to basolateral side in human Caco2 cells. In kind it is ADME, cell-based. The following applies: Caco-2, read-out: permeability.
A short description of series [20]: Tmax in BALB/c mouse at 50 mg/kg, po administered as single dose. Also noted: dose 50 mg/kg, route oral. The following applies: in vivo. Type of series: ADME, organism-based.
A short description of series [21]: Cmax in BALB/c mouse at 50 mg/kg, po administered as single dose. In kind it is ADME, organism-based. Also noted: dose 50 mg/kg, route oral. The following applies: in vivo.
Series [22] in a line: Half life in BALB/c mouse at 50 mg/kg, po administered as single dose. Type of series: ADME, organism-based. Also noted: dose 50 mg/kg, route oral. The following applies: in vivo.
The nature of series [23]: Clearance in po dosed rat. The following applies: in vivo. Type of series: ADME, organism-based.
The nature of series [24]: AUC (infinity) in BALB/c mouse at 50 mg/kg, po administered as single dose. Also noted: dose 50 mg/kg, route oral, time infinity. The following applies: plasma. Type of series: ADME, organism-based.

Sequence of Cytochrome P450 2C9 (P11712 whole entry): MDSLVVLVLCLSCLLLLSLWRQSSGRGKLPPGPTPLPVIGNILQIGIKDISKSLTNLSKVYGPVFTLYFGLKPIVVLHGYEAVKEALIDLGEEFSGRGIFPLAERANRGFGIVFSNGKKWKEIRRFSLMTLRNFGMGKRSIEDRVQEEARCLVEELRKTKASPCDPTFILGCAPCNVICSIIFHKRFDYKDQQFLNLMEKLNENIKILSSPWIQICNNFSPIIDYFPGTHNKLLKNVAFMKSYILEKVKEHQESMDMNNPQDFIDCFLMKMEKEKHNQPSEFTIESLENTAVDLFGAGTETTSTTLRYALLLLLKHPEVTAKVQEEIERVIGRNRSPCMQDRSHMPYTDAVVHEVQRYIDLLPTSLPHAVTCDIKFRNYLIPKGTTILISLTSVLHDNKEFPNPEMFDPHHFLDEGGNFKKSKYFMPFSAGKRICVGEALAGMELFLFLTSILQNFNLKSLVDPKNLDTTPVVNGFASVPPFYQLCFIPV
Sequence of Voltage-gated inwardly rectifying potassium channel KCNH2 (Q12809 whole entry): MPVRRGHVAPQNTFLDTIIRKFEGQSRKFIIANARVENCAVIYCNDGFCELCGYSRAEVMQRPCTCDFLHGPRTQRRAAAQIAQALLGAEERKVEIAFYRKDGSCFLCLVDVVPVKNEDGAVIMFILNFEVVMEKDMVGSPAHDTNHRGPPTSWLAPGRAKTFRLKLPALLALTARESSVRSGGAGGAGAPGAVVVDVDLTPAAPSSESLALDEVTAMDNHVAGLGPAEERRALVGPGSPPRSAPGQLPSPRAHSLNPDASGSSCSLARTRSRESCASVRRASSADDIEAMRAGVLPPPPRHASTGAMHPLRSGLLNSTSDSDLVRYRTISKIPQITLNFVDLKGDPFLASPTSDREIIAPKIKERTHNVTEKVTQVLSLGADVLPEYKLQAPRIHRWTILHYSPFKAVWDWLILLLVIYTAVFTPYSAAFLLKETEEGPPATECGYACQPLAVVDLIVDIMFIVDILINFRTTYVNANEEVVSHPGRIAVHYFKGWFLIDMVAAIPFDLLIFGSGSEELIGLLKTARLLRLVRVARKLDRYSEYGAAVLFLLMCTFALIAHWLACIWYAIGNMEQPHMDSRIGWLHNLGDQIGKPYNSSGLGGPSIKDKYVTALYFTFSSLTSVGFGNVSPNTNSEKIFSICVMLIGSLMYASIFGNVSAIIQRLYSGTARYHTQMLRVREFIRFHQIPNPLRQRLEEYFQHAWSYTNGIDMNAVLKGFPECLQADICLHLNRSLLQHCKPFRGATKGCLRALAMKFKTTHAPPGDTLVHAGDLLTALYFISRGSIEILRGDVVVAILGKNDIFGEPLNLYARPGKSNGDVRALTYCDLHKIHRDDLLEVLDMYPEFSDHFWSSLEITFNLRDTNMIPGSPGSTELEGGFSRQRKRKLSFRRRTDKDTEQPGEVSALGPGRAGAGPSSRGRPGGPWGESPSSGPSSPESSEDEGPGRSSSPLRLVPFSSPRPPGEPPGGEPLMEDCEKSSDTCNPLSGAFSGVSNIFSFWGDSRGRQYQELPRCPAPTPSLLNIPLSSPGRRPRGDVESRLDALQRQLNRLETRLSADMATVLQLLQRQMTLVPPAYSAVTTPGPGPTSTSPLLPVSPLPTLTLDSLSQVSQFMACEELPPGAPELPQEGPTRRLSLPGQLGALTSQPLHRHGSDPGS
Sequence of Cytochrome P450 2C19 (P33261 whole entry): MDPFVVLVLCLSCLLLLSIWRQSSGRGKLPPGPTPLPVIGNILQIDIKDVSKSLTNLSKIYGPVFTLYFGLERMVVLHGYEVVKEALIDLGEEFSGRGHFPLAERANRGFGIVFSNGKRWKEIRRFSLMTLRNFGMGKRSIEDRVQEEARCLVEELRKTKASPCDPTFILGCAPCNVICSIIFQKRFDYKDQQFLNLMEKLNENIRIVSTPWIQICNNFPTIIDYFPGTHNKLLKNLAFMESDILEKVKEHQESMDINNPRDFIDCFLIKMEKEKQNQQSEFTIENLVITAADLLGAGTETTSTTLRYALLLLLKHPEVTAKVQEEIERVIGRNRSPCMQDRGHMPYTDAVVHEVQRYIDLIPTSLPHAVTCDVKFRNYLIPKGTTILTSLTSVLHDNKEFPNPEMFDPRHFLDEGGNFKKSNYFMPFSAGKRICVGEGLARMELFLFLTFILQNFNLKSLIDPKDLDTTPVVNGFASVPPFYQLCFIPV

With `COc1ncnc(Cn2cc(C(=O)NCCF)c3ncc(C)cc32)c1C`, in series [1], the half-life is 30 min. The IC50 at Cytochrome P450 3A4 is > 50 µM; in series [3], > 33 µM; at Cytochrome P450 1A2 it was > 50 µM; against Phosphodiesterase 6, 1 µM; in [11], 3 nM; at Cytochrome P450 2C9, > 50 µM. Moreover, the IC50 at Cytochrome P450 2C19 and against Cytochrome P450 2D6 was > 50 µM each time. Besides, the “T>MIC” value in the series with Rattus norvegicus [2] came out at 10 h. In series [4], this molecule had a solubility at 24 h of 4 µM (≈ 1.43 µg/mL). The same molecule gave a total exposure AUC(0-inf) in series [5] of 2 µM·h. Besides, the outcome in series [6] was Active. Further, the MIC in series [7] was < 0.39 µM. In addition, in the series with Rattus norvegicus [8], the AUC is 23 µM·h. The Tmax in series [9] turned out to be 15 min. The Papp B→A in series [10] amounted to 18 ×10⁻⁶ cm/s. In series [12], this molecule had a bioavailability of 80%. In addition, in series [13], the fraction unbound worked out at 0.07. Further, in series [14], the microsomal CLint was found to be 107 µL/min/mg. The Cmax in series [15] is 5.24 µM.

As for `COc1ncnc(Cn2cc(C(=O)NCC(F)F)c3ncc(C)cc32)c1C`, the MIC in series [16] and in series [7] was < 0.39 µM each time. Besides, the half-inhibitory concentration (IC50) against Cytochrome P450 3A4 is > 50 µM; in [3], > 33 µM; against Cytochrome P450 1A2 it was > 50 µM; against Phosphodiesterase 6, > 10 µM; in series [11], < 5 nM; at Cytochrome P450 2C9, > 50 µM. Moreover, the IC50 on Cytochrome P450 2C19 and at Cytochrome P450 2D6 was > 50 µM throughout. The “T>MIC” value with Rattus norvegicus [2] was 10 h. In series [4], this molecule came in with a solubility at 24 h of 3 µM (≈ 1.13 µg/mL). Further, in series [6], the result was Active. In series [17], this molecule yielded an AUC of 23 µM·h. For the same molecule, in series [10], the Papp B→A was determined as 9 ×10⁻⁶ cm/s. The log distribution coefficient (logD) in series [18] worked out at 2.9. The molecule further registered a fraction unbound in series [13] of 0.05. The microsomal CLint in series [14] was 77 µL/min/mg. Further, the Papp A→B in series [19] worked out at 24 ×10⁻⁶ cm/s.

Take `COc1ncnc(Cn2cc(C(=O)NCCO)c3ncc(C)cc32)c1C` [TBA-7371]: the Tmax in series [20] worked out at 15 min. Moreover, the concentration in [21] peaked (Cmax) at 73 µM. Further, the IC50 at Cytochrome P450 3A4 is > 50 µM; in series [3], > 33 µM; against Cytochrome P450 1A2 it was > 50 µM; in [11], 10 nM; on Cytochrome P450 2C9 it was > 50 µM; at Cytochrome P450 2C19, > 50 µM. Further, at Cytochrome P450 2D6, the IC50 was > 50 µM. In addition, in series [22], the half-life is 42 min. In series [23], this molecule had a CL/F of 27 mL/min/kg. Further, the bioavailability in series [12] was 100%. The molecule further registered an area under the curve AUC(0-inf) in series [24] of 62 µM·h.
